Laboratory results published in ChEMBL document CHEMBL3632488, “Discovery of potent and selective cytotoxic activity of new quinazoline-ureas against TMZ-resistant glioblastoma multiforme (GBM)” (Eur J Med Chem, 2015).
Calls of active or inactive are those of the source. The calls are words filed in the database; no cut-off is given here.

Experiments:
[1] = Antiproliferative activity against human GBM1 cells assessed as reduction in cell viability at 10 uM incubated for 72 hrs by WST-1 method; format: functional; conditions: GBM1, 72 h
[2] = Antiproliferative activity against human GBM2 cells assessed as reduction in cell viability at 10 uM incubated for 72 hrs by WST-1 method; format: functional; conditions: GBM2, 72 h
[3] = Antiproliferative activity against human GBM1 cells assessed as reduction in cell viability incubated for 72 hrs by WST-1 method; format: functional, cell-based; conditions: GBM1, 72 h
[4] = Antiproliferative activity against human GBM2 cells assessed as reduction in cell viability incubated for 72 hrs by WST-1 method; format: functional, cell-based; conditions: GBM2, 72 h
[5] = Cytotoxicity against normal human astrocytes assessed as cell viability incubated for 72 hrs by WST-1 method; format: cell-based; conditions: Astrocyte
[6] = Selectivity index, ratio of IC50 for normal human astrocytes to IC50 for human GBM1 cells
[7] = Selectivity index, ratio of IC50 for normal human astrocytes to IC50 for human GBM2 cells
[8] = Antiproliferative activity against human GBM3 cells assessed as reduction in cell viability at 10 uM incubated for 72 hrs by WST-1 method; format: functional; conditions: GBM3, 72 h
[9] = Antiproliferative activity against human GBM3 cells assessed as reduction in cell viability incubated for 72 hrs by WST-1 method; format: functional, cell-based; conditions: GBM3, 72 h
[10] = Selectivity index, ratio of IC50 for normal human astrocytes to IC50 for human GBM3 cells
GBM1 = assay: Induction of apoptosis in human GBM1 cells assessed as loss of mitochondrial membrane potential at 10 uM after 2 hrs by JC-1 staining based fluorescence microscopy; format: functional, cell-based
[11] = molecular target: Translocator protein (Rattus norvegicus) (UniProt P16257); assay: Displacement of [3H]PK11195 from TSPO receptor in Sprague-Dawley rat cerebral cortex membrane at 10 uM by radiometric competitive assay; format: tissue-based
[12] = molecular target: Translocator protein (Rattus norvegicus) (UniProt P16257); assay: Displacement of [3H]PK11195 from TSPO receptor in Sprague-Dawley rat cerebral cortex membrane at 1 uM by radiometric competitive assay; format: tissue-based
[13] = molecular target: Translocator protein (Rattus norvegicus) (UniProt P16257); assay: Displacement of [3H]PK11195 from TSPO receptor in Sprague-Dawley rat cerebral cortex membrane at 100 nM by radiometric competitive assay; format: tissue-based
[14] = molecular target: Translocator protein (Rattus norvegicus) (UniProt P16257); assay: Displacement of [3H]PK11195 from TSPO receptor in Sprague-Dawley rat cerebral cortex membrane at 10 nM by radiometric competitive assay; format: tissue-based
[15] = molecular target: Translocator protein (Rattus norvegicus) (UniProt P16257); assay: Displacement of [3H]PK11195 from TSPO receptor in Sprague-Dawley rat cerebral cortex membrane at 1 nM by radiometric competitive assay; format: tissue-based
Translocator protein = Translocator protein (Rattus norvegicus, UniProt P16257); assay: Displacement of [3H]PK11195 from TSPO receptor in Sprague-Dawley rat cerebral cortex membrane by radiometric competitive assay; format: tissue-based

SMILES: O=C(Nc1ccc(C(F)(F)F)cc1)Nc1cc2ncncc2cc1OCc1cccc(Cl)c1
- inhibition at 10 µM [1]: 75.7%
- inhibition at 10 µM [2]: 94.6%
- IC50 [3]: 3.4 µM
- IC50 [4]: 4.7 µM
- IC50 [5]: 8.8 µM
- Ratio IC50 [6]: 2
- Ratio IC50 [7]: 2
- inhibition at 10 µM [8]: 90.1%
- IC50 [9]: 5.1 µM
- Ratio IC50 [10]: 2

SMILES: O=C(Nc1cccc(F)c1)Nc1cc2ncncc2cc1OCc1cccc(Cl)c1
- inhibition at 10 µM [1]: 73.2%
- inhibition at 10 µM [2]: 76.3%
- IC50 [3]: 3.7 µM
- IC50 [4]: 7.8 µM
- IC50 [5]: > 10 µM
- Ratio IC50 [6]: >1.5
- Ratio IC50 [7]: >1.5
- inhibition at 10 µM [8]: 54.5%
- IC50 [9]: 8.3 µM
- Ratio IC50 [10]: >1.5

SMILES: O=C(Nc1ccc(Cl)c(Cl)c1)Nc1cc2ncncc2cc1OCc1cccc(F)c1
- inhibition at 10 µM [1]: 98.6%
- inhibition at 10 µM [2]: 99.1%
- IC50 [3]: 2.1 µM
- IC50 [4]: 1.5 µM
- IC50 [5]: 7.4 µM
- Ratio IC50 [6]: 4
- Ratio IC50 [7]: 4
- inhibition at 10 µM [8]: 104%
- IC50 [9]: 2 µM
- Ratio IC50 [10]: 4
- Activity (GBM1): Active
- inhibition [11]: 86%
- inhibition [12]: 42%
- inhibition [13]: 16%
- inhibition [14]: 8%
- inhibition [15]: 3%
- IC50 (Translocator protein): 1.32 µM

SMILES: O=C(Nc1cc2ncncc2cc1OCc1cccc(F)c1)Nc1cccc2ccccc12
- inhibition at 10 µM [1]: 92.6%
- inhibition at 10 µM [2]: 94.9%
- IC50 [3]: 1.3 µM
- IC50 [4]: 1.4 µM
- IC50 [5]: > 10 µM
- Ratio IC50 [6]: >7.7
- Ratio IC50 [7]: >7.7
- inhibition at 10 µM [8]: 92.9%
- IC50 [9]: 1.2 µM
- Ratio IC50 [10]: >7.7
- Activity (GBM1): Active
- inhibition [11]: 75%
- inhibition [12]: 53%
- inhibition [13]: 34%
- inhibition [14]: 9%
- inhibition [15]: 3%
- IC50 (Translocator protein): 0.703 µM

SMILES: O=C(Nc1ccc(Cl)c(Cl)c1)Nc1cc2ncncc2cc1OCc1ccccc1F
- inhibition at 10 µM [1]: 84.4%
- inhibition at 10 µM [2]: 87.6%
- IC50 [3]: 4.1 µM
- IC50 [4]: 6 µM
- IC50 [5]: 3.9 µM
- inhibition at 10 µM [8]: 50.2%
- IC50 [9]: > 10 µM

SMILES: CCc1c2c(nc3ccc(OC(=O)N4CCC(N5CCCCC5)CC4)cc13)-c1cc3c(c(=O)n1C2)COC(=O)[C@]3(O)CC
- inhibition at 10 µM [1]: 34.1%
- inhibition at 10 µM [2]: 91.8%
- IC50 [3]: > 10 µM
- IC50 [4]: 2.4 µM
- IC50 [5]: > 10 µM
- inhibition at 10 µM [8]: 54.1%
- IC50 [9]: 5 µM

SMILES: O=C(Nc1ccccc1F)Nc1cc2ncncc2cc1OCc1cccc(Cl)c1
- inhibition at 10 µM [1]: 73%
- inhibition at 10 µM [2]: 82.3%
- IC50 [3]: 4.2 µM
- IC50 [4]: 4.4 µM
- IC50 [5]: 8.7 µM
- Ratio IC50 [6]: 1.6
- Ratio IC50 [7]: 1.6
- inhibition at 10 µM [8]: 58.8%
- IC50 [9]: 7.5 µM
- Ratio IC50 [10]: 1.6

SMILES: O=C(Nc1ccccc1F)Nc1cc2ncncc2cc1OCc1cccc(F)c1
- inhibition at 10 µM [1]: 63%
- inhibition at 10 µM [2]: 74.5%
- IC50 [3]: 8 µM
- IC50 [4]: 6.4 µM
- IC50 [5]: > 10 µM
- Ratio IC50 [6]: >1.3
- Ratio IC50 [7]: >1.3
- inhibition at 10 µM [8]: 61.4%
- IC50 [9]: 8.1 µM
- Ratio IC50 [10]: >1.3

SMILES: COc1cc([C@@H]2c3cc4c(cc3[C@@H](O[C@@H]3O[C@@H]5CO[C@@H](C)O[C@H]5[C@H](O)[C@H]3O)[C@H]3COC(=O)[C@H]23)OCO4)cc(OC)c1O [ETOPOSIDE]
- inhibition at 10 µM [1]: 53.5%
- inhibition at 10 µM [2]: 88.2%
- IC50 [3]: > 10 µM
- IC50 [4]: 1.1 µM
- IC50 [5]: > 10 µM
- inhibition at 10 µM [8]: 22.1%
- IC50 [9]: > 10 µM

SMILES: O=C(Nc1ccc(C(F)(F)F)cc1)Nc1cc2ncncc2cc1OCc1cccc(F)c1
- inhibition at 10 µM [1]: 76.2%
- inhibition at 10 µM [2]: 99.5%
- IC50 [3]: 3.8 µM
- IC50 [4]: 3.2 µM
- IC50 [5]: 8.9 µM
- Ratio IC50 [6]: 2
- Ratio IC50 [7]: 2
- inhibition at 10 µM [8]: 95.4%
- IC50 [9]: 6.3 µM
- Ratio IC50 [10]: 2

SMILES: O=C(Nc1cc2ncncc2cc1OCc1ccccc1Cl)Nc1cccc2ccccc12
- inhibition at 10 µM [1]: 97.3%
- inhibition at 10 µM [2]: 98.1%
- IC50 [3]: 2.9 µM
- IC50 [4]: 2.9 µM
- IC50 [5]: 2.3 µM
- Ratio IC50 [6]: 1
- Ratio IC50 [7]: 1
- inhibition at 10 µM [8]: 100%
- IC50 [9]: 2.7 µM
- Ratio IC50 [10]: 1

SMILES: O=C(Nc1cc2ncncc2cc1OCc1ccc(Cl)cc1)Nc1cccc2ccccc12
- inhibition at 10 µM [1]: 97.1%
- inhibition at 10 µM [2]: 98.5%
- IC50 [3]: 7.9 µM
- IC50 [4]: 4.5 µM
- IC50 [5]: > 10 µM
- Ratio IC50 [6]: >1.5
- Ratio IC50 [7]: >1.5
- inhibition at 10 µM [8]: 98.8%
- IC50 [9]: 7.7 µM
- Ratio IC50 [10]: >1.5
